Measurements: patent publication US20240316038A1, “APOL1 INHIBITORS AND METHODS OF USE” (Maze Therapeutics, Inc., priority 2021, published 2024)

Legend:
[1] = molecular target: T1, APOL1 G2 (Homo sapiens, UniProt O14791, DEL388-389); test: Rescue of HEK293 cell death caused by overexpression of APOL1 (CellTiter-Glo luminescence), HEK293/T-REx APOL1 G2/clone #2; format: cell-based; conditions: reversal of cell death caused by overexpression of APOL1; geometric mean of at least 2 assay runs, † = single assay run (technical duplicate)
T1 construct: expressed in transfected cells; host or cells: HEK293 T-REx clonal lines: HEK T-REx/GCaMP6f/APOL1 G2 K6.3 in A1, HEK293/T-REx APOL1 G2/clone #2 in A2
T1 sequence (O14791 with tags, fused parts or gaps DEL388-389): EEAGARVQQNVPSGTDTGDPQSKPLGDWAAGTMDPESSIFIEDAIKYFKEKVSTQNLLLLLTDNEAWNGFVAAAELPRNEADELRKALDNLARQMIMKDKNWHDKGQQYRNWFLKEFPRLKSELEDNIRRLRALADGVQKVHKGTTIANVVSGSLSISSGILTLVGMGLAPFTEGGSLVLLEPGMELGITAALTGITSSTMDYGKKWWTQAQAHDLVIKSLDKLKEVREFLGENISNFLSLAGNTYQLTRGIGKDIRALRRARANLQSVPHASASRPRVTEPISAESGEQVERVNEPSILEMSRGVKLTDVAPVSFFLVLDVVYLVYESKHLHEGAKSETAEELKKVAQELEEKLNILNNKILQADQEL
How it was run: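 Rescue EC50s come from four-parameter logistic fits, geometric mean of at least 2 runs on separate days, each in duplicate. Readout: CellTiter-Glo luminescence after 17 h at 37 °C of 5,000 HEK293/T-REx APOL1 G2 clone #2 cells/well, with 6 ng/mL doxycycline to induce APOL1 and 3-fold serial compound dilutions in 0.5% DMSO.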

[2] = molecular target: T1, APOL1 G2; test: APOL1 calcium transport inhibition assay (GCaMP6f calcium influx, FLIPR) in HEK T-REx/GCaMP6f/APOL1 G2 K6.3 cells; format: cell-based; conditions: inhibition of APOL1-mediated calcium influx; geometric mean of at least 2 assay runs, † = single assay run (technical duplicate)
How it was run: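 HEK293 cells stably expressing GCaMP6f, APOL1 G2 induced 6 h with doxycycline (20 ng/mL added), then washed into Ca2+-free Tyrode's buffer pH 7.4. Compounds (8-point dose response) preincubated 10 min at room temperature, then Ca2+ injected to 5 mM final and influx read on FLIPR. AC50 reported as geometric mean of runs.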

SMILES | EC50 [1] | AC50 [2]
C[C@@H]1C[C@H](COc2ccc(S(C)(=O)=O)cc2)CN1CC(O)c1cccc(C#N)c1 (single isomer, unassigned) [Compound 117, 3-[(1S or 1R)-1-hydroxy-2-[(2R,4S)-4-[(4-methanesulfonylphenoxy)methyl]-2-methylpyrrolidin-1-yl]ethyl] benzonitrile] | 1240 nM | 1080 nM
C[C@H]1CN(CCc2cccc(Cl)c2)C[C@@H]1COc1ccc(S(C)(=O)=O)cc1 (single isomer, unassigned) [Compound 154, (3R,4R or 3S, 4S)-1-[2-(3-chlorophenyl)-ethyl]-3-[(4-methanesulfon-ylphenoxy)meth-yl]-4-methyl-pyrrolidine] | 167 nM | 98 nM
CN(c1ccc(OCC2CN(CCc3cccc(Cl)c3)CCCO2)cc1)S(C)(=O)=O (centres unmarked) [Compound 10, N-(4-((4-(3-chlorophenethyl)-1,4-oxazepan-2-yl)methoxy)phenyl)-N-methylmethane-sulfonamide] | 2450 nM | 1720 nM
C[C@@]1(O)CN(CCc2cccc(Cl)c2)C[C@H]1COc1ccc(S(C)(=O)=O)cc1 (single isomer, unassigned) [Compound 207, (3S,4S or 3R,4R)-1-[2-(3-chlorophenyl)ethyl]-4-[(4-methanesulfonylphenoxy)methyl]-3-methylpyrrolidin-3-ol] | 933 nM | 340 nM
C[C@@H]1C[C@H](COc2ccc(S(=O)(=O)C3CNC3)cc2)CN1CCc1cc(Cl)cc(C#N)c1 [Compound 161, 3-{2-[(2R,4S)-4-{[4-(azetidine-3-sulfonyl)phenoxy]methyl}-2-methylpyrrolidin-1-yl]ethyl}-5-chlorobenzonitrile] | 191 nM | 878 nM
C[C@@H]1C[C@H](COc2ccc(S(C)(=O)=O)cc2)CN1CC(O)c1cc(Cl)cc(C#N)c1 (single isomer, unassigned) [Compound 114, 3-chloro-5-[(1S or 1R)-1-hydroxy-2-[(2R,4S)-4-[(4-methanesulfonylphenoxy)methyl]-2-methylpyrrolidin-1-yl]ethyl] benzonitrile] | 439 nM | 709 nM
CC1CC(COc2ccc(S(C)(=O)=O)cc2)CN1CCc1cccc(C#N)c1 (single isomer, unassigned) [Compound 139, 3-{2-[(2S,4R or 2R,4S or 2S,4S or 2R,4R)-4-[(4-methanesulfon-ylphenoxy)meth-yl]-2-methyl-pyrrolidin-1-yl]-ethyl}benzo-nitrile] | 3230 nM | > 10000 nM
N#Cc1cc(Cl)cc(CCN2CCN[C@H](COc3ccc(S(=O)(=O)CCO)cc3)C2)c1 [Compound 182, 3-chloro-5-{2-[(3S)-3-{[4-(2-hydroxyethane-sulfonyl)phenoxy]methyl}pi-perazin-1-yl]ethyl}benzo-nitrile] | 399 nM | 396 nM
C[C@@H]1C[C@H](COc2ccc(S(=O)(=O)CCCS(C)(=O)=O)cc2)CN1CCc1cc(Cl)cc(C#N)c1 [Compound 164, 3-chloro-5-{2-[(2R,4S)-4-{[4-(3-methanesulfonylpro-panesulfonyl)phe-noxy]methyl}-2-methylpyrrolidin-1-yl]ethyl}benzonitrile] | 34.1 nM | 364 nM
CS(=O)(=O)c1ccc(OCC2CCCCN(CCc3cccc(Cl)c3)C2)cc1 (single isomer, unassigned) [Compound 2, (R) or (S)-1-(3-chlorophenethyl)-3-((4-(methylsulfonyl)phenoxy)methyl)azepane] | 2960 nM | 1010 nM
CS(=O)(=O)c1ccc(OC[C@@H]2CN(CCc3cc(Cl)cc(Cl)c3)CCN2)cc1 [Compound 190, (3S)-1-[2-(3,5-dichlorophenyl)ethyl]-3-[(4-methanesulfonylphenoxy)methyl]piperazine] | 291 nM | 170 nM
CS(=O)(=O)c1ccc(OC[C@@H]2CN(CCc3cccc(Cl)c3)CCN2)cc1 [Compound 13, (S)-1-(3-chlorophenethyl)-3-((4-(methylsulfonyl)phenoxy)methyl)piperazine] | 445 nM | 143 nM
CN(c1ccc(OC[C@@H](O)CN2CCC(c3cccc(Cl)c3)C2)cc1)S(C)(=O)=O (single isomer, unassigned) [Compound 75, N-(4-((S)-3-((S) or (R)-3-(3-chlorophenyl)pyrro-lidin-1-yl)-2-hydroxypropoxy)phe-nyl)-N-methylmethanesulfon-amide] | 1460 nM | 558 nM
CS(=O)(=O)c1ccc(OCC2CN(CCc3cccc(Cl)c3)CCC2O)cc1 (single isomer, unassigned) [Compound 29, (3S,4R) or (3R,4R) or (3S,4S) or (3R,4S)-1-(3-chlorophenethyl)-3-((4-(methylsulfonyl)phenoxy)methyl)piperidin-4-ol] | > 12200 nM | 1980 nM
CN(c1ccc(OC[C@@H](O)CNCCc2cccc(C#N)c2)cc1)S(C)(=O)=O [Compound 99, (S)-N-(4-(3-((3-cyanophenethyl)a-mino)-2-hydroxypropoxy)phe-nyl)-N-methylmethanesulfon-amide] | > 30000 nM | 4140 nM
CS(=O)(=O)c1ccc(OC[C@@H]2CN(CCc3cc(Cl)cc(C#N)c3)CCN2)cc1 [Compound 189, 3-chloro-5-{2-[(3S)-3-[(4-methanesulfonylphenoxy)methyl]piperazin-1-yl]ethyl}benzonitrile] | 922 nM | 634 nM
C[C@@H]1CN(CCc2cccc(Cl)c2)C[C@H]1COc1ccc(N(C)S(C)(=O)=O)cc1 (single isomer, unassigned) [Compound 46, N-(4-(((3S,4S) or (3R,4R)-1-(3-chlorophenethyl)-4-methylpyrrolidin-3-yl)methoxy)phenyl)-N-methylmethanesulfonamide] | 21 nM | 90.2 nM
COC1CCN(CCc2cccc(Cl)c2)CC1COc1ccc(S(C)(=O)=O)cc1 (single isomer, unassigned) [Compound 36, (3R,4R) or (3S,4S) or (3R,4S) or (3S,4R)-1-(3-chlorophenethyl)-4-methoxy-3-((4-(methylsulfonyl)phenoxy)methyl)piperidine] | > 30000 nM | 14200 nM
CN=S(C)(=O)c1ccc(OC[C@@H]2CN(CCc3cc(Cl)cc(C#N)c3)CCN2)cc1 (stereo partly drawn) [Compound 186, 3-chloro-5-{2-[(3S)-3-({4-[methyl(methyl-imino)oxo-λ^6-sulfanyl]pheno-xy}methyl)pipera-zin-1-yl]ethyl}benzo-nitrile] | 631 nM | 6980 nM
CS(=O)(=O)c1ccc(OC[C@@H]2CCCN(CCc3cccc(Cl)c3)C2)cc1 [Compound 15, (R)-1-(3-chlorophenethyl)-3-((4-(methylsulfonyl)phenoxy)methyl)piperidine] | 567 nM | 287 nM
CS(=O)(=O)c1ccc(OC[C@@H]2CN(CCc3cc(Cl)ccc3OC(F)F)CCN2)cc1 [Compound 192, (3S)-1-{2-[5-chloro-2-(difluoromethoxy)phenyl]eth-yl}-3-[(4-methanesulfonylphenoxy)methyl]piperazine] | 915 nM | 260 nM
CN(c1ccc(OC[C@@H](O)CN[C@H]2C[C@H](c3cccc(Cl)c3)C2)cc1)S(C)(=O)=O [Compound 65, N-(4-((S)-3-((trans-3-(3-chlorophenyl)cyclo-butyl)amino)-2-hydroxypropoxy)phe-nyl)-N-methylmethanesulfon-amide] | 955 nM | 258 nM
CN(c1ccc(OC[C@H](O)CN2CCC(c3cccc(Cl)c3)C2(C)C)cc1)S(C)(=O)=O (single isomer, unassigned) [Compound 72, N-(4-((R)-3-((S) or (R)-3-(3-chlorophenyl)-2,2-dimethylpyrrolidin-1-yl)-2-hydroxypropoxy)phe-nyl)-N-methylmethanesulfon-amide] | 1220 nM | 314 nM
CS(=O)(=O)c1ccc(OC[C@H]2CCCN(CC(O)c3cccc(Cl)c3)C2)cc1 (single isomer, unassigned) [Compound 18, (R) or (S)-1-(3-chlorophenyl)-2-((S)-3-((4-(methylsulfonyl)phenoxy)methyl)piperidin-1-yl)ethan-1-ol] | 6320 nM | 5730 nM
COC(CN1CCC[C@H](COc2ccc(S(C)(=O)=O)cc2)C1)c1cccc(Cl)c1 (single isomer, unassigned) [Compound 24, (S)-1-((S)-2-(3-chlorophenyl)-2-methoxyethyl)-3-((4-(methylsulfonyl)phenoxy)methyl)piperidine or (S)-1-((R)-2-(3-chlorophenyl)-2-methoxyethyl)-3-((4-(methylsulfonyl)phenoxy)methyl)piperidine] | 334 nM | 501 nM
